This note sets out measurements from patent US20260200928A1, “THERAPEUTIC COMPOUNDS” (Sanofi, priority 2022, published 2026).

For the test, the target named is T1, human IL-17A (Homo sapiens, UniProt Q16552).
T1 construct: purchased R&D Systems 7955-IL/CF
T1 sequence (Q16552 24-155): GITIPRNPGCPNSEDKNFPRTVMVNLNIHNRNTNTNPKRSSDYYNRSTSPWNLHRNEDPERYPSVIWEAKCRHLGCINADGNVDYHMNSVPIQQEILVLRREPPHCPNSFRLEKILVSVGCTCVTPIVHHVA
Briefly: IL-17A AlphaLISA competition assay (block of IL-17A binding to its receptor IL-17RA). To be noted: mean IC50 (n≥2), block of IL-17A binding to IL-17RA. The gist of the method: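 Bead-based AlphaLISA competition in PBS with 0.05% Tween-20 and 0.1% BSA: compound first meets human IL-17A (7.5 nM stock) for 30 min, then IL-17RA/Fc (5 nM stock) for 90 min, all at room temperature, before acceptor/donor bead capture. IC50 fitted 4-parameter, DMSO and 4 μM reference inhibitor as controls; at least duplicate.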
Background: In Alpha technology, singlet oxygen from a donor bead excites a nearby acceptor bead.
With `COCC(c1ccnc(NC(=O)[C@@H](NC(=O)c2nccn2C)[C@H]2CC[C@H](C)CC2)c1)N1C[C@@H](C(F)(F)F)NC1=O` (single isomer, unassigned) [Example 112], the IC50 turned out to be 381 nM. As for `C[C@H]1CC[C@H]([C@H](NC(=O)C2(F)CC2)C(=O)Nc2cc(CN3C[C@@H](C(F)(F)F)NC3=O)ccn2)CC1` [Example 67, 1-fluoro-N-((S)-1-((1r,4S)-4-methylcyclohexyl)-2-oxo-2-((4-(((S)-2-oxo-4-(trifluoromethyl)imidazolidin-1-yl)methyl)pyridin-2-yl)amino)ethyl)cyclopropane-1-carboxamide], the figure is 809 nM; as for `CCc1conc1C(=O)NC(C(=O)Nc1cc([C@@H](CC)N2C[C@@H](C(F)(F)F)NC2=O)ccn1)C1CCC(F)(F)CC1` (stereo in doubt) [Example 208, N—((S)-1-(4,4-difluorocyclohexyl)-2-oxo-2-((4-((R)-1-((S)-2-oxo-4-(trifluoromethyl)imidazolidin-1-yl)propyl)pyridin-2-yl)amino)ethyl)-4-ethylisoxazole-3-carboxamide], 31 nM. As for `Cn1nccc1C(=O)N[C@H](C(=O)Nc1cc(C(C2CC2)N2C[C@@H](C(F)(F)F)NC2=O)ccn1)C1CCC(F)(F)CC1` (single isomer, unassigned) [Example 166, N-((1S)-2-((4-((R or S)-cyclopropyl((S)-2-oxo-4-(trifluoromethyl)imidazolidin-1-yl)methyl)pyridin-2-yl)amino)-1-(4,4-difluorocyclohexyl)-2-oxoethyl)-1-methyl-1H-pyrazole-5-carboxamide], the figure is 50 nM. As for `O=C(N[C@H](C(=O)Nc1cc(CN2C[C@@H](C(F)(F)F)NC2=O)ccn1)C(C1CC1)C1CC1)c1nonc1C1CC1` [Example 16, 4-cyclopropyl-N-((S)-1,1-dicyclopropyl-3-oxo-3-((4-(((S)-2-oxo-4-(trifluoromethyl)imidazolidin-1-yl)methyl)pyridin-2-yl)amino)propan-2-yl)-1,2,5-oxadiazole-3-carboxamide], the figure is 157 nM. In turn, `CCc1nonc1C(=O)N[C@H](C(=O)Nc1cc(CN2C[C@@H](C(F)(F)F)NC2=O)ccn1)[C@@H](C)OC(C)(C)C` [Example 129, N-((2S,3R)-3-(tert-butoxy)-1-oxo-1-((4-(((S)-2-oxo-4-(trifluoromethyl)-imidazolidin-1-yl)methyl)-pyridin-2-yl)amino)butan-2-yl)-4-ethyl-1,2,5-oxa-diazole-3-carboxamide] registered a half-inhibitory concentration (IC50) of 533 nM. In turn, `COCC(NC(=O)CCC(F)(F)F)c1ccnc(NC(=O)C(NC(=O)c2nonc2C)C2CCC(C)CC2)c1` [Example 242, N-((1S)-2-((4-(2-methoxy-1-(4,4,4-trifluorobutanamido)ethyl)pyridin-2-yl)amino)-1-((1r,4S)-4-methylcyclohexyl)-2-oxoethyl)-4-methyl-1,2,5-oxadiazole-3-carboxamide] registered an IC50 of 85 nM. In the case of `COCC(NC(=O)CCC(F)(F)F)c1ccnc(NC(=O)[C@@H](NC(=O)c2nccn2C(C)C)C2CCC(F)(F)CC2)c1` (single isomer, unassigned) [Example 141] it was 646 nM; in that of `CCC[C@H](c1ccnc(NC(=O)C(NC(=O)c2nocc2CC)C2CCC(F)(F)CC2)c1)N1C[C@@H](C(F)(F)F)NC1=O` (stereo in doubt) [Example 158, N—((S)-1-(4,4-difluorocyclohexyl)-2-oxo-2-((4-((R)-1-((S)-2-oxo-4-(trifluoromethyl)imidazolidin-1-yl)butyl)pyridin-2-yl)amino)ethyl)-4-ethylisoxazole-3-carboxamide], 18 nM; in that of `CCn1nccc1C(=O)N[C@H](C(=O)Nc1cc(O[C@H]2C[C@@H](C(F)(F)F)NC2=O)ccn1)[C@H]1CC[C@H](C)CC1` [Example 322, 1-ethyl-N—((S)-1-((1r,4S)-4-methylcyclohexyl)-2-oxo-2-((4-(((3S,5S)-2-oxo-5-(trifluoromethyl)pyrrolidin-3-yl)oxy)pyridin-2-yl)amino)ethyl)-1H-pyrazole-5-carboxamide], 821 nM. As for `C[C@@H](OC(C)(C)C)[C@@H](NC(=O)OCc1ccccc1)C(=O)Nc1cc(CN2C[C@@H](C(F)(F)F)NC2=O)ccn1` [Example 100, Benzyl ((2R,3R)-3-(tert-butoxy)-1-oxo-1-((4-(((S)-2-oxo-4-(trifluoromethyl)imidazolidin-1-yl)methyl)pyridin-2-yl)amino)butan-2-yl)carbamate], the figure is 17400 nM; as for `COC[C@H](c1ccnc(NC(=O)[C@@H](NC(=O)c2ccnn2C(C)C)C2CC(F)(F)C2)c1)N1C[C@@H](C(F)(F)F)NC1=O` [Example 262, N—((S)-1-(3,3-difluorocyclobutyl)-2-((4-((S)-2-methoxy-1-((S)-2-oxo-4-(trifluoromethyl)imidazolidin-1-yl)ethyl)pyridin-2-yl)amino)-2-oxoethyl)-1-isopropyl-1H-pyrazole-5-carboxamide], 198 nM; as for `C[C@H](OC(C)(C)C)[C@H](NC(=O)c1nonc1C1CC1)C(=O)Nc1cc(CN2C[C@@H](C(F)(F)F)NC2=O)ccn1` [Example 116, N-((2S,3S)-3-(tert-butoxy)-1-oxo-1-((4-(((S)-2-oxo-4-(trifluoromethyl)-imidazolidin-1-yl)methyl)pyridin-2-yl)amino)butan-2-yl)-4-cyclopropyl-1,2,5-oxadiazole-3-carboxamide], 15400 nM. In the case of `COCC(c1ccnc(NC(=O)[C@@H](NC(=O)c2nonc2C2CC2)C2CCC(F)(F)CC2)c1)[C@H]1C[C@@H](C(F)(F)F)NC1=O` (single isomer, unassigned) [Example 185, 4-Cyclopropyl-N-((1S)-1-(4,4-difluorocyclohexyl)-2-((4-((R or S)-2-methoxy-1-((3R,5S)-2-oxo-5-(trifluoromethyl)pyrrolidin-3-yl)ethyl)pyridin-2-yl)amino)-2-oxoethyl)-1,2,5-oxadiazole-3-carboxamide] it was 46 nM; in that of “N-((1S)-1-(4-chlorocyclohexyl)-2-((4-((S)-2-methoxy-1-((S)-2-oxo-4-(trifluoromethyl)imidazolidin-1-yl)ethyl)pyridin-2-yl)amino)-2-oxoethyl)-1-methyl-1H-pyrazole-5-carboxamide [Example 311]”, 96 nM. For the molecule “N-((S)-1-(4,4-difluorocyclohexyl)-2-oxo-2-((4-(2-((S)-2-oxo-4-(trifluoromethyl)imidazolidin-1-yl)propan-2-yl)pyridin-2-yl)amino)ethyl)-1-isopropyl-1H-pyrazole-5-carboxamide [Example 175]”, the concentration for half-maximal inhibition (IC50) is 384 nM. Compared with the last molecule, the IC50 is about 4-fold higher. `C[C@@H](OC(C)(C)C)[C@H](NC(=O)c1nonc1C1CC1)C(=O)Nc1cc(CN2C[C@@H](C(F)(F)F)NC2=O)ccn1` [Example 102, N-((2S,3R)-3-(tert-butoxy)-1-oxo-1-((4-(((S)-2-oxo-4-(trifluoromethyl)-imidazolidin-1-yl)methyl)pyridin-2-yl)amino)butan-2-yl)-4-cyclopropyl-1,2,5-oxadiazole-3-carboxamide]: the IC50 stood at 356 nM. This IC50 and that of the molecule before are within 1.5-fold of each other.

With `CC1CCC(C(NC(=O)c2ccnn2C(C)C)C(=O)Nc2cc(C(C)N3CC(C(F)(F)F)NC3=O)ccn2)CC1` [Example 241, 1-isopropyl-N-((S)-1-((1r,4S)-4-methylcyclohexyl)-2-oxo-2-((4-((R)-1-((S)-2-oxo-4-(trifluoromethyl)imidazolidin-1-yl)ethyl)pyridin-2-yl)amino)ethyl)-1H-pyrazole-5-carboxamide], the half-maximal inhibitory concentration (IC50) came to 29 nM. This IC50 is about 12-fold lower than that of the molecule before. In the case of `COC[C@H](c1ccnc(NC(=O)[C@@H](NC(=O)c2ccnn2C(C)C)C2CCC(Cl)CC2)c1)N1C[C@@H](C(F)(F)F)NC1=O` (stereo partly drawn) [Example 312, N-((1S)-1-(4-chlorocyclohexyl)-2-((4-((S)-2-methoxy-1-((S)-2-oxo-4-(trifluoromethyl)imidazolidin-1-yl)ethyl)pyridin-2-yl)amino)-2-oxoethyl)-1-isopropyl-1H-pyrazole-5-carboxamide] it was 121 nM; in that of `[2H]C([2H])([2H])C([2H])([2H])n1ccc(C(=O)N[C@H](C(=O)Nc2cc([C@@H](COC)N3C[C@@H](C(F)(F)F)NC3=O)ccn2)C2CCC(F)(F)CC2)n1` [Example 190, N-((S)-1-(4,4-difluorocyclohexyl)-2-((4-((S)-2-methoxy-1-((S)-2-oxo-4-(trifluoromethyl)imidazolidin-1-yl)ethyl)pyridin-2-yl)amino)-2-oxoethyl)-1-(ethyl-d5)-1H-pyrazole-3-carboxamide], 816 nM; in that of `CC(C)c1nocc1C(=O)N[C@H](C(=O)Nc1cc(CN2C[C@@H](C(F)(F)F)NC2=O)ccn1)C1CCC(F)(F)CC1` [Example 21, N-((S)-1-(4,4-difluorocyclohexyl)-2-oxo-2-((4-(((S)-2-oxo-4-(trifluoro-methyl)imidazolidin-1-yl)methyl)pyridin-2-yl)amino)ethyl)-3-isopropyl-isoxazole-4-carboxamide], 138 nM. Molecule `CCc1nocc1C(=O)N[C@H](C(=O)Nc1cc(C(NC(=O)CCC(F)(F)F)C2CC2)ccn1)C1CCC(F)(F)CC1` (stereo partly drawn) [Example 161, N-((1S)-2-((4-(cyclopropyl(4,4,4-trifluorobutanamido)methyl)pyridin-2-yl)amino)-1-(4,4-difluorocyclohexyl)-2-oxoethyl)-3-ethylisoxazole-4-carboxamide] came in with an IC50 of 615 nM. Against the preceding molecule, the IC50 is about 4.5-fold higher.

Regarding `[2H]C([2H])([2H])C([2H])([2H])n1nccc1C(=O)N[C@H](C(=O)Nc1cc([C@@H](COC)N2C[C@@H](C(F)(F)F)NC2=O)ccn1)C1CCC(F)(F)CC1` [Example 189, N-((S)-1-(4,4-difluorocyclohexyl)-2-((4-((S)-2-methoxy-1-((S)-2-oxo-4-(trifluoromethyl)imidazolidin-1-yl)ethyl)pyridin-2-yl)amino)-2-oxoethyl)-1-(ethyl-d5)-1H-pyrazole-5-carboxamide], the half-inhibitory concentration (IC50) stood at 65 nM. Compared with the last molecule, the IC50 is about 9.5-fold lower.

Broadly, the IC50 is the concentration needed to halve the response being measured. A high value points to a need for much substance.
